Laboratory results taken from ChEMBL document CHEMBL5055633, “Amphipathic Barbiturates as Mimics of Antimicrobial Peptides and the Marine Natural Products Eusynstyelamides with Activity against Multi-resistant Clinical Isolates” (J Med Chem, 2021).
Active and inactive are the calls of the source. The calls are words filed in the database; no cut-off is given here.

Columns and labels:
HepG2 = experiment: Cytotoxicity against human HepG2 cells assessed as reduction in cell viability incubated for 24 hrs by colorimetric tetrazolium assay; assay type: functional, cell-based; conditions: HepG2, 24 h
[1] = Hemolytic activity in human erythrocytes incubated for 1 hr by microplate reader; assay type: functional, cell-based; conditions: erythrocyte
Pseudomonas aeruginosa [2] = experiment: Antimicrobial activity against Pseudomonas aeruginosa PAO1 assessed as reduction in bacterial growth incubated for 48 hrs by microdilution susceptibility test; assay type: functional
Escherichia coli [3] = experiment: Antimicrobial activity against Escherichia coli ATCC 25922 assessed as reduction in bacterial growth incubated for 48 hrs by microdilution susceptibility test; assay type: functional
[4] = system: Corynebacterium glutamicum; experiment: Antimicrobial activity against Corynebacterium glutamicum ATCC 13032 assessed as reduction in bacterial growth incubated for 48 hrs by microdilution susceptibility test; assay type: functional
Staphylococcus aureus [5] = experiment: Antimicrobial activity against Staphylococcus aureus ATCC 9144 assessed as reduction in bacterial growth incubated for 48 hrs by microdilution susceptibility test; assay type: functional
MRC5 = experiment: Cytotoxicity against human MRC5 cells assessed as reduction in cell viability incubated for 24 hrs by colorimetric tetrazolium assay; assay type: functional, cell-based; conditions: MRC5, 24 h
Staphylococcus aureus [6] = experiment: Antimicrobial activity against extended spectrum-lactamase-carbapenemas producing Staphylococcus aureus N315 assessed as reduction in bacterial growth incubated for 48 hrs by microdilution method; assay type: functional
Staphylococcus aureus [7] = experiment: Antimicrobial activity against extended spectrum-lactamase-carbapenemas producing Staphylococcus aureus NCTC 10442 assessed as reduction in bacterial growth incubated for 48 hrs by microdilution method; assay type: functional
Staphylococcus aureus [8] = experiment: Antimicrobial activity against extended spectrum-lactamase-carbapenemas producing Staphylococcus aureus strain 85/2082 assessed as reduction in bacterial growth incubated for 48 hrs by microdilution method; assay type: functional
Staphylococcus aureus [9] = experiment: Antimicrobial activity against extended spectrum-lactamase-carbapenemas producing Staphylococcus aureus strain WIS assessed as reduction in bacterial growth incubated for 48 hrs by microdilution method; assay type: functional
Staphylococcus aureus [10] = experiment: Antimicrobial activity against extended spectrum-lactamase-carbapenemas producing Staphylococcus aureus strain IHT 99040 assessed as reduction in bacterial growth incubated for 48 hrs by microdilution method; assay type: functional
Enterococcus faecium [11] = experiment: Antimicrobial activity against extended spectrum-lactamase-carbapenemas producing Enterococcus faecium strain 50673722 assessed as reduction in bacterial growth incubated for 48 hrs by microdilution method; assay type: functional
Enterococcus faecium [12] = experiment: Antimicrobial activity against extended spectrum-lactamase-carbapenemas producing Enterococcus faecium strain 50901530 assessed as reduction in bacterial growth incubated for 48 hrs by microdilution method; assay type: functional
Enterococcus faecium [13] = experiment: Antimicrobial activity against extended spectrum-lactamase-carbapenemas producing Enterococcus faecium strain K36-18 assessed as reduction in bacterial growth incubated for 48 hrs by microdilution method; assay type: functional
Enterococcus faecium [14] = experiment: Antimicrobial activity against extended spectrum-lactamase-carbapenemas producing Enterococcus faecium strain 50758899 assessed as reduction in bacterial growth incubated for 48 hrs by microdilution method; assay type: functional
Enterococcus faecium [15] = experiment: Antimicrobial activity against extended spectrum-lactamase-carbapenemas producing Enterococcus faecium strain TUH.50-22 assessed as reduction in bacterial growth incubated for 48 hrs by microdilution method; assay type: functional
Escherichia coli [16] = experiment: Antimicrobial activity against oxacillinase-producing Escherichia coli 50579417 assessed as reduction in bacterial growth incubated for 48 hrs by microdilution method; assay type: functional
Escherichia coli [17] = experiment: Antimicrobial activity against verona integron-encoded metallo-beta-lactamase-29-producing Escherichia coli 50639799 assessed as reduction in bacterial growth incubated for 48 hrs by microdilution method; assay type: functional
Escherichia coli [18] = experiment: Antimicrobial activity against New Delhi metallo-beta lactamase-1 producing Escherichia coli 50676002 assessed as reduction in bacterial growth incubated for 48 hrs by microdilution method; assay type: functional
Escherichia coli [19] = experiment: Antimicrobial activity against New Delhi metallo-beta lactamase-1 producing Escherichia coli 50739822 assessed as reduction in bacterial growth incubated for 48 hrs by microdilution method; assay type: functional
Escherichia coli [20] = experiment: Antimicrobial activity against imipenem-type carbapenemase-26 producing Escherichia coli 50857972 assessed as reduction in bacterial growth incubated for 48 hrs by microdilution method; assay type: functional
Pseudomonas aeruginosa [21] = experiment: Antimicrobial activity against verona integron-encoded metallo-beta-lactamase-2 producing Pseudomonas aeruginosa K34-7 assessed as reduction in bacterial growth incubated for 48 hrs by microdilution method; assay type: functional
Pseudomonas aeruginosa [22] = experiment: Antimicrobial activity against verona integron-encoded metallo-beta-lactamase-4 producing Pseudomonas aeruginosa K34-73 assessed as reduction in bacterial growth incubated for 48 hrs by microdilution method; assay type: functional
Pseudomonas aeruginosa [23] = experiment: Antimicrobial activity against imipenem-type carbapenemase-14 producing Pseudomonas aeruginosa K44-24 assessed as reduction in bacterial growth incubated for 48 hrs by microdilution method; assay type: functional
Pseudomonas aeruginosa [24] = experiment: Antimicrobial activity against New Delhi metallo-beta lactamase-1 producing Pseudomonas aeruginosa 50692172 assessed as reduction in bacterial growth incubated for 48 hrs by microdilution method; assay type: functional
Pseudomonas aeruginosa [25] = experiment: Antimicrobial activity against verona integron-encoded metallo-beta-lactamase producing Pseudomonas aeruginosa 50692520 assessed as reduction in bacterial growth incubated for 48 hrs by microdilution method; assay type: functional
[26] = Antimicrobial activity against carbapenemase producing Klebsiella pneumoniae K47-25 assessed as reduction in bacterial growth incubated for 48 hrs by microdilution method; assay type: functional
[27] = Antimicrobial activity against New Delhi metallo-beta lactamase-1 Klebsiella pneumoniae K66-45 assessed as reduction in bacterial growth incubated for 48 hrs by microdilution method; assay type: functional
[28] = Antimicrobial activity against New Delhi metallo-beta lactamase-1 and oxacillinase -181 producing Klebsiella pneumoniae 50531633 assessed as reduction in bacterial growth incubated for 48 hrs by microdilution method; assay type: functional
[29] = Antimicrobial activity against oxacillinase-245 producing Klebsiella pneumoniae 50625602 assessed as reduction in bacterial growth incubated for 48 hrs by microdilution method; assay type: functional
[30] = Antimicrobial activity against verona integron-encoded metallo-beta-lactamase -1 producing Klebsiella pneumoniae 50667959 assessed as reduction in bacterial growth incubated for 48 hrs by microdilution method; assay type: functional
Acinetobacter baumannii [31] = experiment: Antimicrobial activity against oxacillinase-58 producing Acinetobacter baumannii K12-21 assessed as reduction in bacterial growth incubated for 48 hrs by microdilution method; assay type: functional
Acinetobacter baumannii [32] = experiment: Antimicrobial activity against oxacillinase-23 producing Acinetobacter baumannii K44-35 assessed as reduction in bacterial growth incubated for 48 hrs by microdilution method; assay type: functional
Acinetobacter baumannii [33] = experiment: Antimicrobial activity against oxacillinase-23 producing Acinetobacter baumannii K47-42 assessed as reduction in bacterial growth incubated for 48 hrs by microdilution method; assay type: functional
Acinetobacter baumannii [34] = experiment: Antimicrobial activity against oxacillinase-24 producing Acinetobacter baumannii K55-13 assessed as reduction in bacterial growth incubated for 48 hrs by microdilution method; assay type: functional
Acinetobacter baumannii [35] = experiment: Antimicrobial activity against oxacillinase-23 producing Acinetobacter baumannii K63-58 assessed as reduction in bacterial growth incubated for 48 hrs by microdilution method; assay type: functional
Streptococcus pneumoniae [36] = experiment: Antibacterial activity against in […] 168 assessed as decrease in bacterial viability at 6.3 ug/ml by cell viability assay; assay type: functional, organism-based; conditions: dose 6.3 µg/ml
Escherichia coli [37] = experiment: Membrano-lytic effect in Escherichia coli HB101 assessed as decrease in bacterial viability at 6.3 ug/ml by luciferase based real-time membrane integrity assay; assay type: functional, organism-based; conditions: dose 6.3 µg/ml
Escherichia coli [38] = experiment: Antibacterial activity against Escherichia coli HB101 assessed as decrease in bacterial viability at 6.3 ug/ml by cell viability assay; assay type: functional, organism-based; conditions: dose 6.3 µg/ml
Escherichia coli [39] = experiment: Antibacterial activity against in Escherichia coli HB101 assessed as decrease in bacterial viability at 3.1 ug/ml by cell viability assay; assay type: functional, organism-based; conditions: dose 3.1 µg/ml
Streptococcus pneumoniae [40] = experiment: Antibacterial activity against in […] 168 assessed as decrease in bacterial viability at 3.1 ug/ml by cell viability assay; assay type: functional, organism-based; conditions: dose 3.1 µg/ml
Escherichia coli [41] = experiment: Membrano-lytic effect in Escherichia coli HB101 assessed as decrease in bacterial viability at 3.1 ug/ml by luciferase based real-time membrane integrity assay; assay type: functional, organism-based; conditions: dose 3.1 µg/ml
[42] = Toxicity in ip dosed mouse assessed as maximum tolerated dose; assay type: organism-based; conditions: in vivo
Escherichia coli [43] = experiment: Antibacterial activity against Escherichia coli EC106-09 infected in mouse peritonitis model assessed as reduction in colony forming unit at 1.4 mg/kg, ip relative to control; assay type: functional
Escherichia coli [44] = experiment: Antibacterial activity against Escherichia coli EC106-09 infected in mouse peritonitis model assessed as reduction in colony forming unit at 1.4 mg/kg, ip treatment repeated after 3 hrs relative to control; assay type: functional
Streptococcus pneumoniae [45] = experiment: Antibacterial activity against Klebsiella pneumoniae KP3010 infected in mouse peritonitis model assessed as reduction in colony forming unit at 1.4 mg/kg, ip relative to control; assay type: functional
Streptococcus pneumoniae [46] = experiment: Antibacterial activity against Klebsiella pneumoniae KP3010 infected in mouse peritonitis model assessed as reduction in colony forming unit at 1.4 mg/kg, ip treatment repeated after 3 hrs relative to control; assay type: functional
Mus musculus = experiment: Toxicity in mouse assessed as tolerability at 2.8 to 3.6 mg/kg, ip; assay type: organism-based; conditions: in vivo, dose 2.8-3.6 mg/kg

NCCCCN1C(=O)N(CCCCN)C(=O)C(Cc2cc(Br)cc(Br)c2)(Cc2cc(Br)cc(Br)c2)C1=O.O=C(O)C(F)(F)F.O=C(O)C(F)(F)F
IC50 (HepG2): 4 µg/mL | EC50 [1]: 79 µg/mL | MIC (Pseudomonas aeruginosa [2]): 8 µg/mL | MIC (Escherichia coli [3]): 4 µg/mL | MIC [4]: 1 µg/mL | MIC (Staphylococcus aureus [5]): 4 µg/mL | IC50 (MRC5): 2 µg/mL | MIC (Staphylococcus aureus [6]): 4 µg/mL | MIC (Staphylococcus aureus [7]): 4 µg/mL | MIC (Staphylococcus aureus [8]): 4 µg/mL | MIC (Staphylococcus aureus [9]): 4 µg/mL | MIC (Staphylococcus aureus [10]): 4 µg/mL | MIC (Enterococcus faecium [11]): 4 µg/mL | MIC (Enterococcus faecium [12]): 4 µg/mL | MIC (Enterococcus faecium [13]): 8 µg/mL | MIC (Enterococcus faecium [14]): 4 µg/mL | MIC (Enterococcus faecium [15]): 4 µg/mL | MIC (Escherichia coli [16]): 8 µg/mL | MIC (Escherichia coli [17]): 8 µg/mL | MIC (Escherichia coli [18]): 8 µg/mL | MIC (Escherichia coli [19]): 8 µg/mL | MIC (Escherichia coli [20]): 8 µg/mL | MIC (Pseudomonas aeruginosa [21]): 16 µg/mL | MIC (Pseudomonas aeruginosa [22]): 16 µg/mL | MIC (Pseudomonas aeruginosa [23]): 16 µg/mL | MIC (Pseudomonas aeruginosa [24]): 16 µg/mL | MIC (Pseudomonas aeruginosa [25]): 16 µg/mL | MIC [26]: 16 µg/mL | MIC [27]: 16 µg/mL | MIC [28]: 8 µg/mL | MIC [29]: 16 µg/mL | MIC [30]: 16 µg/mL | MIC (Acinetobacter baumannii [31]): 16 µg/mL | MIC (Acinetobacter baumannii [32]): 16 µg/mL | MIC (Acinetobacter baumannii [33]): 16 µg/mL | MIC (Acinetobacter baumannii [34]): 16 µg/mL | MIC (Acinetobacter baumannii [35]): 16 µg/mL | Activity (Streptococcus pneumoniae [36]): Active | Activity (Escherichia coli [37]): Active | Activity (Escherichia coli [38]): Active | Activity (Escherichia coli [39]): Active | Activity (Streptococcus pneumoniae [40]): Active | Activity (Escherichia coli [41]): Active

N=C(N)NCCCCN1C(=O)N(CCCCNC(=N)N)C(=O)C(Cc2cc(Br)cc(Br)c2)(Cc2cc(Br)cc(Br)c2)C1=O.O=C(O)C(F)(F)F.O=C(O)C(F)(F)F
IC50 (HepG2): 30 µg/mL | EC50 [1]: 62 µg/mL | MTD [42]: 7 mg/kg | MIC (Pseudomonas aeruginosa [2]): 4 µg/mL | MIC (Escherichia coli [3]): 2 µg/mL | MIC [4]: 0.25 µg/mL | MIC (Staphylococcus aureus [5]): 1 µg/mL | IC50 (MRC5): 11 µg/mL | MIC (Staphylococcus aureus [6]): 2 µg/mL | MIC (Staphylococcus aureus [7]): 2 µg/mL | MIC (Staphylococcus aureus [8]): 2 µg/mL | MIC (Staphylococcus aureus [9]): 2 µg/mL | MIC (Staphylococcus aureus [10]): 2 µg/mL | MIC (Enterococcus faecium [11]): 4 µg/mL | MIC (Enterococcus faecium [12]): 2 µg/mL | MIC (Enterococcus faecium [13]): 4 µg/mL | MIC (Enterococcus faecium [14]): 4 µg/mL | MIC (Enterococcus faecium [15]): 2 µg/mL | MIC (Escherichia coli [16]): 4 µg/mL | MIC (Escherichia coli [17]): 4 µg/mL | MIC (Escherichia coli [18]): 4 µg/mL | MIC (Escherichia coli [19]): 4 µg/mL | MIC (Escherichia coli [20]): 4 µg/mL | MIC (Pseudomonas aeruginosa [21]): 8 µg/mL | MIC (Pseudomonas aeruginosa [22]): 8 µg/mL | MIC (Pseudomonas aeruginosa [23]): 8 µg/mL | MIC (Pseudomonas aeruginosa [24]): 8 µg/mL | MIC (Pseudomonas aeruginosa [25]): 16 µg/mL | MIC [26]: 4 µg/mL | MIC [27]: 4 µg/mL | MIC [28]: 4 µg/mL | MIC [29]: 4 µg/mL | MIC [30]: 4 µg/mL | MIC (Acinetobacter baumannii [31]): 4 µg/mL | MIC (Acinetobacter baumannii [32]): 4 µg/mL | MIC (Acinetobacter baumannii [33]): 4 µg/mL | MIC (Acinetobacter baumannii [34]): 8 µg/mL | MIC (Acinetobacter baumannii [35]): 4 µg/mL | inhibition in vivo at 1.4 mg/kg (Escherichia coli [43]): 90% | inhibition in vivo at 1.4 mg/kg (Escherichia coli [44]): 97% | inhibition in vivo at 1.4 mg/kg (Streptococcus pneumoniae [45]): 98% | inhibition in vivo at 1.4 mg/kg (Streptococcus pneumoniae [46]): 97% | Activity (Mus musculus): Non-Toxic | Activity (Streptococcus pneumoniae [36]): Active | Activity (Escherichia coli [37]): Active | Activity (Escherichia coli [38]): Active | Activity (Escherichia coli [39]): Active | Activity (Streptococcus pneumoniae [40]): Active | Activity (Escherichia coli [41]): Active
